Values of other authors as cited in patent US6436949B1, “Heterocyclically substituted benzamides and their use” (Abbott Laboratories, priority 1996, dated 2002).

Key:
calpain [1] = settings: activated platelets; J. Biol. Chem., 1993, Vol 268, 12603-12608
calpain [2] = settings: J.Med.Chem. 1990,33, 11-13

| Molecule | cleavage of pp60src (calpain [1]) | inhibition of calpain (calpain [2]) |
| --- | --- | --- |
| CCCC[C@@H](C=O)NC(=O)[C@H](CC(C)C)NC(=O)OCc1ccccc1 [calpeptin] | can be prevented |  |
| Ph—CONH—CH(CH2Ph)—CO—COCOOCH3 |  | weak inhibitor of calpain |
